Assay results from PubChem BioAssay (NCI).
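Five concentrations, 48 hours, 96-well plates. TGI is the concentration that stops growth completely.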

Assays:
Assay in all cases: NCI anticancer screen, dose series, 48 h
[1] = tested on: OVCAR-8 ovarian
[2] = tested on: UACC-257 melanoma
[3] = tested on: EKVX NSCLC
[4] = tested on: ACHN renal
[5] = tested on: NCI-H226 lung
[6] = tested on: SK-OV-3 ovarian
[7] = tested on: SN12C renal
[8] = tested on: NCI-H460 lung
[9] = tested on: OVCAR-4 ovarian
[10] = tested on: HOP-62 NSCLC
[11] = tested on: MDA-MB-435
[12] = tested on: MOLT-4 leukemia
[13] = tested on: NCI-H522 lung
[14] = tested on: MALME-3M melanoma
[15] = tested on: MDA-N
[16] = tested on: LOX IMVI melanoma
[17] = tested on: SW-620 colon
[18] = tested on: HS 578T breast
[19] = tested on: NCI/ADR-RES ovarian
[20] = tested on: HL-60(TB) leukemia
[21] = tested on: MCF7 breast
[22] = tested on: HCC-2998 colon
[23] = tested on: HCT-116 colon
[24] = tested on: SK-MEL-2 melanoma
[25] = tested on: UACC-62 melanoma
[26] = tested on: CCRF-CEM leukemia
[27] = tested on: U251 CNS
[28] = tested on: NCI-H23 lung
[29] = tested on: RPMI-8226 leukemia
[30] = tested on: MDA-MB-231 breast
[31] = tested on: K-562 leukemia
[32] = tested on: DU-145 prostate
[33] = tested on: A498 renal
[34] = tested on: IGROV1 ovarian
[35] = tested on: SR leukemia
[36] = tested on: RXF 393 renal
[37] = tested on: CAKI-1 renal
[38] = tested on: TK-10 renal
[39] = tested on: HT29 colon
[40] = tested on: UO-31 renal
[41] = tested on: 786-0 renal
[42] = tested on: HCT-15 colon
[43] = tested on: OVCAR-5 ovarian
[44] = tested on: SF-268 CNS
[45] = tested on: PC-3 prostate
[46] = tested on: SF-295 CNS
[47] = tested on: BT-549 breast
[48] = tested on: KM12 colon
[49] = tested on: SK-MEL-28 melanoma
[50] = tested on: OVCAR-3 ovarian
[51] = tested on: M14 melanoma
[52] = tested on: A549 NSCLC
[53] = tested on: T-47D breast
[54] = tested on: SNB-19 CNS
[55] = tested on: COLO 205 colon
[56] = tested on: SF-539 CNS
[57] = tested on: HOP-92 NSCLC
[58] = tested on: SK-MEL-5 melanoma
[59] = tested on: DMS 273 small cell lung
[60] = tested on: SNB-75 CNS
[61] = tested on: DLD-1 colon
[62] = tested on: LXFL 529 NSCLC
[63] = tested on: DMS 114 small cell lung

## Cc1cc(C)n2nc3nc(N)c(C#N)c(-c4ccccc4)c3c2n1
[1]
  TGI: > 100 µM
[2]
  TGI: > 100 µM
[3]
  TGI: > 100 µM
[4]
  TGI: > 100 µM
[5]
  TGI: > 100 µM
[6]
  TGI: > 100 µM
[7]
  TGI: > 100 µM
[8]
  TGI: > 100 µM
[9]
  TGI: > 100 µM
[10]
  TGI: > 100 µM
[11]
  TGI: > 100 µM
[12]
  TGI: > 100 µM
[13]
  TGI: > 100 µM
[14]
  TGI: > 100 µM
[15]
  TGI: > 100 µM
[16]
  TGI: > 100 µM
[17]
  TGI: > 100 µM
[18]
  TGI: > 100 µM
[19]
  TGI: > 100 µM
[20]
  TGI: > 100 µM
[21]
  TGI: > 100 µM
[22]
  TGI: > 100 µM
[23]
  TGI: > 100 µM
[24]
  TGI: > 100 µM
[25]
  TGI: > 100 µM
[26]
  TGI: > 100 µM
[27]
  TGI: > 100 µM
[28]
  TGI: > 100 µM
[29]
  TGI: > 100 µM
[30]
  TGI: > 100 µM
[31]
  TGI: > 100 µM
[32]
  TGI: > 100 µM
[33]
  TGI: > 100 µM
[34]
  TGI: > 100 µM
[35]
  TGI: > 100 µM
[36]
  TGI: > 100 µM
[37]
  TGI: > 100 µM
[38]
  TGI: > 100 µM
[39]
  TGI: > 100 µM
[40]
  TGI: > 100 µM
[41]
  TGI: > 100 µM
[42]
  TGI: > 100 µM
[43]
  TGI: > 100 µM
[44]
  TGI: > 100 µM
[45]
  TGI: > 100 µM
[46]
  TGI: > 100 µM
[47]
  TGI: > 100 µM
[48]
  TGI: > 100 µM
[49]
  TGI: > 100 µM
[50]
  TGI: > 100 µM
[51]
  TGI: > 100 µM
[52]
  TGI: > 100 µM
[53]
  TGI: > 100 µM
[54]
  TGI: > 100 µM
[55]
  TGI: > 100 µM
[56]
  TGI: > 100 µM
[57]
  TGI: > 100 µM
[58]
  TGI: > 100 µM

## COc1cc([C@H]2Oc3cc(O)c4c(=O)cc(-c5ccccc5)oc4c3O[C@@H]2CO)ccc1O
[4]
  TGI: 63.8 µM
[5]
  TGI: 80.1 µM
[6]
  TGI: 70.3 µM
[7]
  TGI: > 100 µM
[9]
  TGI: 89.4 µM
[10]
  TGI: > 100 µM
[12]
  TGI: > 100 µM
[13]
  TGI: 72 µM
[14]
  TGI: 46.3 µM
[20]
  TGI: > 100 µM
[22]
  TGI: > 100 µM
[59]
  TGI: > 100 µM
[23]
  TGI: > 100 µM
[24]
  TGI: > 100 µM
[25]
  TGI: > 100 µM
[26]
  TGI: > 100 µM
[28]
  TGI: 69.2 µM
[29]
  TGI: > 100 µM
[31]
  TGI: > 100 µM
[33]
  TGI: 73.4 µM
[34]
  TGI: > 100 µM
[35]
  TGI: > 100 µM
[37]
  TGI: 79.1 µM
[40]
  TGI: 58.6 µM
[60]
  TGI: 39 µM
[41]
  TGI: 61.2 µM
[61]
  TGI: > 100 µM
[42]
  TGI: > 100 µM
[44]
  TGI: > 100 µM
[49]
  TGI: > 100 µM
[51]
  TGI: > 100 µM
[62]
  TGI: 77 µM
[55]
  TGI: > 100 µM
[56]
  TGI: 56.6 µM
[57]
  TGI: 58.1 µM
[63]
  TGI: > 100 µM
